According to patent US20020193320A1, “C-2 modified erythromycin derivatives” (priority 1999, published 2002):

What was measured:
Assay in all cases: In vitro antibacterial activity, agar dilution MIC
Format in all cases: cell-based
[1] = system: Streptococcus pyogenes EES61; conditions: code LL, BHI agar, 35-37° C., 20 to 24 hours
Experimental: (§1) Representative compounds of the present invention were assayed in vitro for antibacterial activity as follows: Twelve petri dishes containing successive aqueous dilutions of the test compound mixed with 10 mL of sterilized Brain Heart Infusion (BHI) agar (Difco 0418-01-5) were prepared. Each plate was inoculated with 1:100 (or 1:10 for slow-growing strains, such as Micrococcus and Streptococcus) dilutions of up to 32 different microorganisms, using a Steers replicator block. The inoculated plates were incubated at 35-37° C. for 20 to 24 hours. In addition, a control plate, using BHI agar containing no test compound, was prepared and incubated at the beginning and end of each test.
(§2) An additional plate containing a compound having known susceptibility patterns for the organisms being tested and belonging to the same antibiotic class as the test compound was also prepared and incubated as a further control, as well as to provide test-to-test comparability.
(§3) After incubation, each plate was visually inspected. The minimum inhibitory concentration (MIC) was defined as the lowest concentration of drug yielding no growth, a slight haze, or sparsely isolated colonies on the inoculum spot as compared to the growth control.

[2] = system: Haemophilis Influenzae DILL AMP R; conditions: code WW, 35-37° C., 20 to 24 hours
Experimental: as §1, §2, §3

[3] = system: Micrococcus luteus ATCC 4698; conditions: code PP, BHI agar, 35-37° C., 20 to 24 hours
Experimental: as §1, §2, §3

[4] = system: Streptococcus Pneumonia 5649; conditions: code ZZA (code list: ZA), 35-37° C., 20 to 24 hours
Experimental: as §1, §2, §3

[5] = system: Streptococcus Pneumonia ATCC 6303; conditions: code XX, 35-37° C., 20 to 24 hours
Experimental: as §1, §2, §3

[6] = system: Streptococcus Pneumonia GYR 1171; conditions: code YY, 35-37° C., 20 to 24 hours
Experimental: as §1, §2, §3

[7] = system: Streptococcus Pneumonia 5979; conditions: code ZZ, 35-37° C., 20 to 24 hours
Experimental: as §1, §2, §3

[8] = system: Streptococcus pyogenes 930; design: unit not given here; conditions: code MM, BHI agar, 35-37° C., 20 to 24 hours
Experimental: as §1, §2, §3

[9] = system: Nocardia Asteroides ATCC 99700; design: unit not given here; conditions: code VV, BHI agar, 35-37° C., 20 to 24 hours
Experimental: as §1, §2, §3

[10] = system: Micrococcus luteus ATCC 9341; design: unit not given here; conditions: code OO, BHI agar, 35-37° C., 20 to 24 hours
Experimental: as §1, §2, §3

[11] = system: Staphylococcus aureus NCTC 10649M; design: unit not given here; conditions: code EE, BHI agar, 35-37° C., 20 to 24 hours
Experimental: as §1, §2, §3

[12] = system: Staphylococcus aureus CMX 642A; design: unit not given here; conditions: code DD, BHI agar, 35-37° C., 20 to 24 hours
Experimental: as §1, §2, §3

[13] = system: Enterococcus faecium ATCC X043; design: unit not given here; conditions: code II, BHI agar, 35-37° C., 20 to 24 hours
Experimental: as §1, §2, §3

[14] = system: Staphylococcus aureus 1775; design: unit not given here; conditions: code GG, BHI agar, 35-37° C., 20 to 24 hours
Experimental: as §1, §2, §3

[15] = system: Mycobacterium smegmatis ATCC 114; design: unit not given here; conditions: code UU, BHI agar, 35-37° C., 20 to 24 hours
Experimental: as §1, §2, §3

[16] = system: Staphylococcus aureus ATCC 6538P; design: unit not given here; conditions: code AA, BHI agar, 35-37° C., 20 to 24 hours
Experimental: as §1, §2, §3

Candida albicans CCH 442 = system: Candida albicans CCH 442; design: unit not given here; conditions: code TT, BHI agar, 35-37° C., 20 to 24 hours
Experimental: as §1, §2, §3

[17] = system: Staphylococcus aureus CMX 553; design: unit not given here; conditions: code FF, BHI agar, 35-37° C., 20 to 24 hours
Experimental: as §1, §2, §3

Escherichia coli JUHL = system: Escherichia coli JUHL; design: unit not given here; conditions: code QQ, BHI agar, 35-37° C., 20 to 24 hours
Experimental: as §1, §2, §3

[18] = system: Staphylococcus aureus A-5177; design: unit not given here; conditions: code BB, BHI agar, 35-37° C., 20 to 24 hours
Experimental: as §1, §2, §3

Escherichia coli DC-2 = system: Escherichia coli DC-2; design: unit not given here; conditions: code SS, BHI agar, 35-37° C., 20 to 24 hours
Experimental: as §1, §2, §3

[19] = system: Streptococcus pyogenes PIU 2548; design: unit not given here; conditions: code NN, BHI agar, 35-37° C., 20 to 24 hours
Experimental: as §1, §2, §3

Escherichia coli SS = system: Escherichia coli SS; design: unit not given here; conditions: code RR, BHI agar, 35-37° C., 20 to 24 hours
Experimental: as §1, §2, §3

[20] = system: Streptococcus agalactiae CMX 508; design: unit not given here; conditions: code KK, BHI agar, 35-37° C., 20 to 24 hours
Experimental: as §1, §2, §3

[21] = system: Staphylococcus aureus A-5278; design: unit not given here; conditions: code CC, BHI agar, 35-37° C., 20 to 24 hours
Experimental: as §1, §2, §3

[22] = system: Staphylococcus epidermidis 3519; design: unit not given here; conditions: code HH, BHI agar, 35-37° C., 20 to 24 hours
Experimental: as §1, §2, §3

[23] = system: Streptococcus bovis A-5169; design: unit not given here; conditions: code JJ, BHI agar, 35-37° C., 20 to 24 hours
Experimental: as §1, §2, §3

| Molecule | Antibacterial Activity (MIC) [8] | Antibacterial Activity (MIC) [9] | Antibacterial Activity (MIC) [10] | Antibacterial Activity (MIC) [11] | Antibacterial Activity (MIC) [12] | Antibacterial Activity (MIC) [13] | Antibacterial Activity (MIC) [14] | Antibacterial Activity (MIC) [15] | Antibacterial Activity (MIC) [16] | Antibacterial Activity (MIC) (Candida albicans CCH 442) | Antibacterial Activity (MIC) [17] | Antibacterial Activity (MIC) (Escherichia coli JUHL) | Antibacterial Activity (MIC) [18] | Antibacterial Activity (MIC) (Escherichia coli DC-2) | Antibacterial Activity (MIC) [19] | Antibacterial Activity (MIC) (Escherichia coli SS) | Antibacterial Activity (MIC) [20] | Antibacterial Activity (MIC) [21] | Antibacterial Activity (MIC) [22] | Antibacterial Activity (MIC) [23] | also measured |
| --- | --- | --- | --- | --- | --- | --- | --- | --- | --- | --- | --- | --- | --- | --- | --- | --- | --- | --- | --- | --- | --- |
| C#CCOC1(C)CC(C)C(=O)C(C)C2NC(=O)OC2(C)C(CC)OC(=O)C(C)(CC=Cc2ccccc2)C(=O)C(C)C1OC1OC(C)CC(N(C)C)C1O (stereo not drawn) [Example 9, Compound of formula (II): R^a is —CH2C≡CH, R^b is H, Y and Z together are O, T is —NH—, R is —CH2CH≡CH—(phenyl)] | 50 | 1.56 | 1.56 | 12.5 | 3.1 | 3.1 | 100 | 12.5 | 3.1 | >100 | 3.1 | >100 | 3.1 | >100 | 3.1 | 6.2 | 1.56 | >100 | 6.2 | 0.78 | Antibacterial Activity (MIC) [1]: 1.56; Antibacterial Activity (MIC) [2]: >64; Antibacterial Activity (MIC) [3]: 3.1; Antibacterial Activity (MIC) [4]: 8; Antibacterial Activity (MIC) [5]: 1; Antibacterial Activity (MIC) [6]: 1; Antibacterial Activity (MIC) [7]: 64 |
| Compound of formula (II): R^a is CH3, R^b is H, Y and Z together are O, T is —N(W(R^g)-, W is —(CH2)p-, p is 4, R^g is phenyl, R is —OH [Example 2] | 25 | 3.1 | 0.39 | 1.56 | 3.1 | 0.39 | 100 | 3.1 | 1.56 | 100 | 1.56 | >100 | 1.56 | >100 | 0.39 | 6.2 | 0.2 | 100 | 3.1 | 0.2 | Antibacterial Activity (MIC) ([1]; unit assumed): 0.1 µg/mL; Antibacterial Activity (MIC) ([2]; unit assumed): 64 µg/mL; Antibacterial Activity (MIC) ([3]; unit assumed): 0.78 µg/mL; Antibacterial Activity (MIC) ([4]; unit assumed): 1 µg/mL; Antibacterial Activity (MIC) ([5]; unit assumed): 0.5 µg/mL; Antibacterial Activity (MIC) ([6]; unit assumed): 0.25 µg/mL; Antibacterial Activity (MIC) ([7]; unit assumed): 32 µg/mL |
